The values below come from the NIST ThermoML archive (doi:10.1021/je300044x).

Series [1] in a line: Molar enthalpy of transition or fusion. Conditions: DSC.

Structures are written as SMILES. Numbers after ± are expanded uncertainties.

In the case of `CCn1cc[n+](C)c1.O=S(=O)([N-]S(=O)(=O)C(F)(F)F)C(F)(F)F`, the Normal melting temperature (Metastable crystal, visual observation) was -16.24 ± 2 °C.
For the compound `NC(=O)c1cnccn1` [pyrazinecarboxamide], the Normal melting temperature (Crystal 1, DTA) stood at 188.27 ± 1.1 °C. Also, the Triple point temperature (Crystal 2, DTA) is on record as 420.36 ± 1.1 K. For the same compound, the “Molar enthalpy of transition or fusion” value in series [1] (Crystal 1) amounted to 6.72 ± 0.194 kcal/mol; in series [1] (Crystal 2), 0.39 ± 0.0359 kcal/mol.
